Measurements: patent US20230094952A1, “Method for Culturing Hematopoietic Stem Cells” (Sumitomo Pharma Co., Ltd., priority 2019, published 2023)

Test system: mouse long-term hematopoietic stem cells
Assay: Reproducibility and concentration dependence test: 1-week culture of sorted Hoxb5-tri-mCherry mouse long-term hematopoietic stem cells, flow cytometry
Assay type: cell-based
Details: day 7 of culture, n=2
Experimental: Mice with insertion of a nucleic acid sequence containing three copies of a gene encoding the fluorescent protein mCherry to the C terminus of the mouse endogenous HoxB5 gene (Hoxb5-tri-mCherry) were used (triple-mCherry Hoxb5 knock-in mice; Non Patent Literature 1). The mice were housed under environmental conditions such that the room temperature and the humidity were 20 to 26° C. and 40 to 70%, respectively, under light for 12 hours and under dark for 12 hours (illumination: 8:00 a.m. to 8:00 p.m.).
Bone marrow cells were collected from the tibia, femur, humerus, and pelvis in each side of each of the mice, and gathered in a mortar. A buffer obtained by adding thermally deactivated bovine serum (manufactured by Gibco) at a final concentration of 2% and EDTA at a final concentration of 2 mM to Ca^2+-free and Mg^2+-free PBS was added, and the resultant was broken with a pestle to obtain a cell population including hematopoietic stem cells.
First, the thus-obtained cell population including hematopoietic stem cells was passed through strainers (meshes) of 100 μm, 70 μm, and 40 μm. The cell population was stained with an APC-binding anti-c-Kit (2B8) and fractionated with anti-APC magnetic beads and an LS column (both manufactured by Miltenyi Biotec) to obtain a cell population enriched with hematopoietic stem cells and progenitor cells.
Subsequently, cells being c-Kit-positive were stained with antibodies for the following cell surface markers.
Staining with the antibodies was performed at 4° C., and the cells were incubated for 30 minutes. For staining with the CD34 antibody, the cells were incubated for 90 minutes. Dead cell staining was performed with SYTOX Red Dead Cell Stain (manufactured by Life Technologies) in accordance with a method recommended by the manufacturer.
Flow cytometry analysis and cell classification (cell sorting) were performed with a FACS Aria II cell sorter (manufactured by BD Biosciences), wherein Lineage-negative, c-Kit-positive, Sca-1-positive, Flk2-negative, CD34-negative or weakly CD34-positive, CD150-positive, and mCherry-positive fractions were regarded as long-term hematopoietic stem cells, and analysis was performed with the software FlowJo (manufactured by Tree Star, Inc.).
The cells after classification were seeded in a 96-well plate. A cell culture medium was prepared by adding Stem Cell Factor (SCF, manufactured by PeproTech, Inc.) and Thrombopoietin (TPO, manufactured by PeproTech, Inc.) to StemSpan SFEM culture medium (manufactured by […] Technologies Inc.) and added in advance to a cell culture 96-well plate (manufactured by BD Biosciences) at 100 μL/well, and the cells sorted with the FACS Aria II cell sorter (BD Biosciences) were then seeded at 10 cells/well.
[…] Thereafter, the cells were cultured in a CO2 incubator under conditions of 37° C. and 5% CO2 for 1 week.
After culture, the cells were stained with the antibodies for the surface markers c-Kit and Sca-1, Ter-119, B220, CD3, CD4, CD8a, Gr-1, and CD11b, and the ratio and post-growth cell count of a KLS fraction (c-Kit^+, Lin^−, Sca-1^+) or an mCherry-positive fraction given with use of a FACS Aria II cell sorter were analyzed by using FlowJo (BD Biosciences). The mCherry-positive fraction is a cell fraction expressing the Hoxb5 gene, and the KLS fraction is a cell fraction being c-Kit-positive, Lin-negative, and Sca-1-positive, and includes hematopoietic stem cells and multipotent progenitor cells as main components. […]

Structure (SMILES) | KLS-positive rate (Table 4, compound 0.1 μM) [%] | Viable cell count (Table 4, compound 0.1 μM) [cell] | mCherry-positive rate (Table 4, compound 0.1 μM) [%] | KLS-positive rate (Table 4, compound 0.3 μM) [%] | Viable cell count (Table 4, compound 0.3 μM) [cell] | mCherry-positive rate (Table 4, compound 0.3 μM) [%] | KLS-positive rate (Table 4, compound 1 μM) [%] | Viable cell count (Table 4, compound 1 μM) [cell] | mCherry-positive rate (Table 4, compound 1 μM) [%] | KLS-positive rate (Table 4, compound 3 μM) [%] | Viable cell count (Table 4, compound 3 μM) [cell] | mCherry-positive rate (Table 4, compound 3 μM) [%] | KLS-positive rate (Table 4, compound 10 μM) [%] | Viable cell count (Table 4, compound 10 μM) [cell] | mCherry-positive rate (Table 4, compound 10 μM) [%] | also measured
C[C@H]1[C@@H](c2ccccc2)O[C@@H]2O[C@@]3(C)CC[C@H]4[C@H](C)CC[C@@H]1[C@@]24OO3 [Example 1-2, (3R,5aS,6R,8aS,9R,10S,12R,12aR)-3,6,9-Trimethyl-10-phenyldecahydro-12H-3,12-epoxypyrano[4,3-j][1,2]benzodioxepine] | 16.0 | 340.5 | 59.9 | 50.0 | 0.5 | 50.0 | 0.0 | 0.5 | 0.0 | 0.0 | 0.5 | 50.0 | 0.0 | 0.0 | 0.0 | 
C[C@H]1[C@H](C(=O)O)O[C@@H]2O[C@@]3(C)CC[C@H]4[C@H](C)CC[C@@H]1[C@@]24OO3 [Example 1-8, (3R,5aS,6R,8aS,9R,10R,12R,12aR)-3,6,9-Trimethyldecahydro-12H-3,12-epoxypyrano[4,3-j][1,2]benzodioxepine-10-carboxylic acid] | 17.3 | 396.5 | 3.0 | 18.2 | 379.5 | 7.7 | 28.7 | 248.0 | 12.0 | 37.3 | 204.5 | 12.9 | 20.6 | 286.5 | 29.0 | 
C[C@H]1[C@H](CN)O[C@@H]2O[C@@]3(C)CC[C@H]4[C@H](C)CC[C@@H]1[C@@]24OO3 [Example 1-18, 1-[(3R,5aS,6R,8aS,9R,10R,12R,12aR)-3,6,9-Trimethyldecahydro-12H-3,12-epoxypyrano[4,3-j][1,2]benzodioxepin-10-yl]methanamine] | 10.9 | 405.0 | 23.5 | 16.7 | 191.0 | 15.4 | 22.4 | 162.0 | 19.2 | 30.9 | 154.0 | 80.5 | 49.6 | 72.5 | 98.6 | 
C[C@H]1[C@H](NS(C)(=O)=O)O[C@@H]2O[C@@]3(C)CC[C@H]4[C@H](C)CC[C@@H]1[C@@]24OO3 [Example 1-11, N-[(3R,5aS,6R,8aS,9R,10R,12R,12aR)-3,6,9-Trimethyldecahydro-12H-3,12-epoxypyrano[4,3-j][1,2]benzodioxepin-10-yl]methanesulfonamide] | 13.2 | 452.5 | 14.3 | 17.6 | 267.0 | 29.2 | 26.0 | 196.0 | 60.4 | 32.4 | 31.0 | 86.2 | 100.0 | 1.5 | 100.0 | 
C[C@@H]1CC[C@H]2[C@@H](C)C(=O)O[C@@H]3O[C@@]4(C)CC[C@@H]1[C@]32OO4 [Example 1-33, artemisinin, reference compound] | 20.2 | 268.5 | 28.1 | 11.2 | 309.5 | 23.5 | 20.3 | 268.0 | 56.8 | 26.1 | 85.0 | 81.8 | 16.1 | 178.0 | 78.8 | KLS-positive rate (Table 3, compound 0.1 μM): 33.2%; Viable cell count (Table 3, compound 0.1 μM): 445.5 cell; mCherry-positive rate (Table 3, compound 0.1 μM): 49.25%; KLS-positive rate (Table 3, compound 0.3 μM): 18.2%; Viable cell count (Table 3, compound 0.3 μM): 1020 cell; mCherry-positive rate (Table 3, compound 0.3 μM): 28.15%; KLS-positive rate (Table 3, compound 1 μM): 46.85%; Viable cell count (Table 3, compound 1 μM): 728 cell; mCherry-positive rate (Table 3, compound 1 μM): 60.85%; KLS-positive rate (Table 3, compound 3 μM): 50.8%; Viable cell count (Table 3, compound 3 μM): 229 cell; mCherry-positive rate (Table 3, compound 3 μM): 81.3%; KLS-positive rate (Table 3, compound 10 μM): 52%; Viable cell count (Table 3, compound 10 μM): 282.5 cell; mCherry-positive rate (Table 3, compound 10 μM): 80%
C[C@H]1[C@@H](OCc2ccccc2)O[C@@H]2O[C@@]3(C)CC[C@H]4[C@H](C)CC[C@@H]1[C@@]24OO3 [Example 1-24, (3R,5aS,6R,8aS,9R,10S,12R,12aR)-10-(benzyloxy)-3,6,9-trimethyldecahydro-12H-3,12-epoxypyrano[4,3-j][1,2]benzodioxepine] | 73.6 | 18.0 | 94.1 | 0.0 | 0.5 | 50.0 | 0.0 | 0.5 | 50.0 | 0.0 | 0.0 | 0.0 | 0.0 | 0.5 | 0.0 | 
CC(C)O[C@H]1O[C@@H]2O[C@@]3(C)CC[C@H]4[C@H](C)CC[C@@H]([C@H]1C)[C@@]24OO3 [Example 1-19, (3R,5aS,6R,8aS,9R,10S,12R,12aR)-3,6,9-Trimethyl-10-[(propan-2-yl)oxy]decahydro-12H-3,12-epoxypyrano[4,3-j][1,2]benzodioxepine] | 9.5 | 469.0 | 56.3 | 41.7 | 151.0 | 96.2 | 4.2 | 6.0 | 50.0 | 0.0 | 0.0 | 0.0 | 0.0 | 0.5 | 50.0 | 
CC(=O)O[C@@H]1O[C@@H]2O[C@@]3(C)CC[C@H]4[C@H](C)CC[C@@H]([C@H]1C)[C@@]24OO3 [Example 1-14, (3R,5aS,6R,8aS,9R,10S,12R,12aR)-3,6,9-Trimethyldecahydro-12H-3,12-epoxypyrano[4,3-j][1,2]benzodioxepin-10-yl acetate] | 20.6 | 497.5 | 0.2 | 30.1 | 340.0 | 9.0 | 47.3 | 119.0 | 22.1 | 50.0 | 1.0 | 100.0 | 0.0 | 0.5 | 0.0 | 
